Structure (SMILES) | logP
CCCCOc1cc(Cc2cnc(N)nc2N)c(C)cc1OC | 2.78
Cc1cccc(C)c1C(=N)c1ccccc1 | 3.53
CCCCOc1cccc(N2C(N)=NC(N)=NC2(C)C)c1 | 2.03
COc1cccc(NS(=O)(=O)C(F)(F)F)c1 | 3.13
CCOP(=O)(OCC)Oc1ccc(SC)c(Cl)c1 | 2.94
Cc1cc(C(=O)O)no1 | 0.68
c1ccc(Sc2cnn[nH]2)cc1 | 2.65
O=C1CCC(=O)N1c1cccc(Br)c1 | 1.09
CS(=O)(=O)c1cccc(OCC(=O)O)c1 | 0.01
CC1=CC(=O)N2C=CCCC2(C)N1 (stereo unspecified) | 0.69
O=NN(CCF)C(=O)NC1CSCSC1 | 1.54
CC(=O)Nc1ccn(C2OC(COC(C)=O)C(OC(C)=O)C2OC(C)=O)c(=O)n1 (stereo unspecified) | -0.16
CN(Cc1ccc([N+](=O)[O-])cc1)N=Nc1ccc(C(=O)O)cc1 | 4.03
CCCCN(SN(C)C(=O)ON=C(C)SC)C(C)=O | 2.4
CCOC(=O)C(=Cc1cccc(OC)c1OC)C(C)=O | 2.21
COc1cc(S(=O)(=O)CC(O)c2ccccc2)cc(OC)c1OC (stereo unspecified) | 1.65
CC1(C)N=C(N)N=C(N)N1c1ccc(I)cc1 | 1.39
Nc1nc(N)nc(-c2cc(F)ccc2Br)n1 | 1.45
O=S(=O)(Nc1cccc(Cl)c1)C(F)(F)F | 4
CCCCC(=O)NN | -0.11
CCCCCCCC[n+]1ccc(C)c(C)c1.[I-] | -0.41
COC(=O)C(C#N)=NNc1cc(C(F)(F)F)ccc1Cl | 4.42
CCOC(=O)c1ccc(Cl)nn1 | 0.12
CSc1ccc2c(c1)C(c1ccccc1)=NCC(=O)N2 | 2.92
Clc1ccc(N=C2NCCN2)c(Cl)c1 | 1.96
COc1cc(C)n(-c2nc(C)cc(C)n2)n1 | 1.82

Structure (SMILES) | logP
OCC1OC(Oc2ccc(I)cc2)C(O)C(O)C1O (stereo unspecified) | 0.75
O=S1(=O)NC(C2CC2)=Nc2cc(Cl)ccc21 | 1.98
O=S1(=O)NC(C2CC=CCC2)=Nc2ccccc21 (stereo unspecified) | 2.05
COC(=O)[C@@H]1[C@@H](C=C(C)C)C1(C)C | 3.76
Brc1ccc(N=C2NCCN2)cc1 | 1.75
CCOC(=O)CCN1C(=O)C=CC1=O | 0.41
OCC1C(Cl)C(Cl)C(Cl)C(Cl)C1Cl (stereo unspecified) | 2.94
CCSC(=O)Oc1cccc2cccnc12 | 2.74
CCc1ccc(N=NN(C)C(C)=O)cc1 | 3.36
COc1c(C)cc(Cc2cnc(N)nc2N)cc1C | 2.19
COc1ccc(Cc2cnc(N)nc2N)cc1N | 0.76
CCOC(=O)C(C#N)=NNc1cccc(Cl)c1 | 3.94
CN(N=O)C1CCCCC1 | 1.43
O=S(=O)(Nc1ccc(Cl)cc1Cl)C(F)(F)F | 3.88
CNC(=O)ON=Cc1ccc(Cl)c(Cl)c1 | 2.89
COCC(O)Cn1cc([N+](=O)[O-])nc1C (stereo unspecified) | -0.36
O=C1CCC(=O)N1c1ccc(Cl)cc1 | 0.96
C#CC(C=C)(CC)OC(N)=O (stereo unspecified) | 1.09
CCC(C)C(NC(C)=O)C(N)=O (stereo unspecified) | -0.03
CCOP(=S)(OCC)Oc1ccc(SC)cc1Cl | 4.4
CCOC(=O)CCCCn1nnc2ccccc21 | 2.2
FC(F)(F)c1nc2c(Br)c(Br)c(Br)cc2[nH]1 | 4.08
CN(C)c1ccc(N(C)C)nn1 | 0.99
CCCCC1OC(=O)c2cc([N+](=O)[O-])ccc21 (stereo unspecified) | 2.92
O=C1CN=C(c2ccccc2)c2ccccc2N1 | 2.18
Clc1cc(Cl)cc(-c2c(Cl)c(Cl)cc(Cl)c2Cl)c1 | 7.37

Structure (SMILES) | logP
CC(C)(C)c1nnc(N)o1 | 0.48
COCCOc1c(OC)cc(Cc2cnc(N)nc2N)cc1OC | 0.56
O=NN(CCCl)C(=O)NC1CCS(=O)(=O)CC1 | 0.19
OCC1OC(Oc2cc(OC3OC(CO)C(O)C(O)C3O)c(I)cc2I)C(O)C(O)C1O (stereo unspecified) | -0.25
Nc1ncco1 | -0.18
CCOP(=O)(OCC)Oc1ccc(SC)cc1C | 3.21
Cn1c(=O)c(=O)n(C)c2ccccc21 | 0.08
CCCC12CC3CC(CC(N)(C3)C1)C2 | 3.76
FC(F)(F)c1nc2c(Cl)ccc(Cl)c2[nH]1 | 2.87
CCC(C)n1nnc2ccccc21 (stereo unspecified) | 2.31
NC(=O)c1[nH]cnc1/N=N/N(CCO)CCO | -1.09
CSc1nnc(C2CCCCC2)c(=O)n1N | 2.14
Nc1nc(N)nc(-c2cc(Br)ccc2Br)n1 | 2.09
COC(=O)C(C#N)=NNc1cc(Cl)c(Cl)c(Cl)c1 | 5.22
CCc1ccc2c(c1)C(c1ccccc1F)=NCC(=O)N2 | 2.92
COc1cc(CC(=O)O)ccc1OCc1ccccc1 | 2.59
O=C(c1ccncc1)c1ccccc1O | 2.13
O=S(=O)(Nc1ccc(Cl)cc1)C(F)(F)F | 3.96
COc1cc(Cc2cnc(N)nc2N)cc(OC)c1OCC#N | 0.72
Cc1ccccc1-c1nc(N)nc(N)n1 | 1.26
OC(C1CO1)C(O)C1CO1 (stereo unspecified) | -1.29
O=S1(=O)N=CNc2ccc(Cl)cc21 | 1.07
O=C(NO)Nc1ccc(Cl)cc1 | 1.39
CCCC1=Nc2cc(Cl)ccc2S(=O)(=O)N1 | 2.04

— the OPERA property sets (Mansouri et al. 2018)
